Source: article PMC9557897 (ACS Omega, 2022)
Values after ≈ are worked out from the molar mass of the structure shown.

How the values were obtained:
[1] = system: herpes simplex virus 1 (HSV-1); test: Plaque reduction assay; type: cell-based; conditions: Human alphaherpesvirus 1
ADV7 = conditions: cited from earlier work

Row | IC50 [1] [µg/mL] | Compound | EC50 (ADV7) [µg/mL]
1 | 0.07 (≈ 0.311 µM) | Nc1nc2c(ncn2COCCO)c(=O)[nH]1 [acyclovir] | 
2 |  | NC(=O)c1ncn([C@@H]2O[C@H](CO)[C@@H](O)[C@H]2O)n1 [ribavirin] | 27.8 (≈ 114 µM)
